Assay results taken from patent publication US20230025510A1, “BIARYL ETHER-TYPE QUINAZOLINE DERIVATIVES” (DAIICHI SANKYO COMPANY, LIMITED, priority 2018, published 2023).

Tests used:
Assay type in all cases: cell-based
[1] = tested on: Ba/F3-EGFR ins. ASV cells; experiment: Cell proliferation suppression test (CellTiter-Glo, GI50), Ba/F3-EGFR ins. ASV; details: Mus musculus, 72 h, 3 days, N=4
Protocol: (§1) Cell proliferation suppression test Ba/F3-Mock, Ba/F3-EGFR WT, Ba/F3-EGFR ins. ASV, and Ba/F3-EGFR ins. SVD cell lines were cultured based on a culture medium of 10% FBS-containing RPMI 1640 supplemented with 1.5 ug/mL puromycin, and 5 ng/mL IL-3 and 100 ng/mL of EGF were further added to the culture solution for Ba/F3-Mock and Ba/F3-EGFR WT, respectively. The cells were cultured in a CO2 incubator set at 37° C., 5% CO2. Specimens prepared by dilution were seeded into 384-well tissue culture plates with Echo555 (Labcyte Inc.), and the cells were seeded thereto at 400 cells/well for Ba/F3-Mock, Ba/F3-EGFR WT, and Ba/F3-EGFR ins. SVD and at 200 cells/well for Ba/F3-EGFR ins. ASV (day 0), then they were cultured for an additional 3 days. On the day of the compound addition (day 0) and 3 days after the compound addition (day 3), ATP quantity was measured with CellTiter-Glo (registered trademark) 2.0 (Promega Corporation.), and used as an indicator of cell quantity (N=4). In the test, puromycin-free culture medium was used. Concentrations at which cell proliferation from day 0 to day 3 was inhibited by 50% (GIso) were calculated with EXCEL.

[2] = tested on: Ba/F3-EGFR ins. SVD cells; experiment: Cell proliferation suppression test (CellTiter-Glo, GI50), Ba/F3-EGFR ins. SVD; details: Mus musculus, 72 h, 3 days, N=4
Protocol: as §1

Ba/F3-Mock cells = experiment: Cell proliferation suppression test (CellTiter-Glo, GI50), Ba/F3-Mock; details: Mus musculus, BaF3, 72 h, 5 ng/mL IL-3, 3 days, N=4
Protocol: as §1

Ba/F3-EGFR WT cells = experiment: Cell proliferation suppression test (CellTiter-Glo, GI50), Ba/F3-EGFR WT; details: Mus musculus, 72 h, 100 ng/mL EGF, 3 days, N=4
Protocol: as §1

| Structure (SMILES) | GI50 [1] | GI50 [2] | GI50 (Ba/F3-Mock cells) | GI50 (Ba/F3-EGFR WT cells) |
| --- | --- | --- | --- | --- |
| C=CC(=O)N1CCC(Oc2cc3c(Nc4ccc(Oc5ccn(-c6cnc(C7CC7)nc6)n5)cc4F)ncnc3cc2OC)CC1 [Example 10, 1-(4-{[4-(4-{[1-(2-cyclopropylpyrimidin-5-yl)-1H-pyrazol-3-yl]oxy}-2-fluoroanilino)-7-methoxyquinazolin-6-yl]oxy}piperidin-1-yl)prop-2-en-1-one] | 11.9 nM | 7.6 nM | 6170 nM | 212 nM |
| CCc1nnc(-c2cccc(Oc3ccc(Nc4ncnc5cc(OC)c(NC(=O)/C=C/CN(C)C)cc45)c(F)c3)c2)o1 [Example 41, (2E)-4-(Dimethylamino)-N-(4-{4-[3-(5-ethyl-1,3,4-oxadiazol-2-yl)phenoxy]-2-fluoroanilino)-7-methoxyquinazolin-6-yl)but-2-enamide] | 8.2 nM | 27 nM | 841 nM | 114 nM |
| C=CC(=O)N1CCC(Oc2cc3c(Nc4ccc(Oc5ccn(C(=O)NC(C)(C)CF)n5)cc4F)ncnc3cc2OC)CC1 [Example 5, 3-{3-Fluoro-4-[(7-methoxy-6-{[1-(prop-2-enoyl)piperidin-4-yl]oxy}quinazolin-4-yl)amino]phenoxy}-N-(1-fluoro-2-methylpropan-2-yl)-1H-pyrazole-1-carboxamide] | 5.4 nM | 4.3 nM | > 10000 nM | 77.1 nM |
| C=CC(=O)N1CCC(Oc2cc3c(Nc4ccc(Oc5ccn(-c6ccc(C)nc6)n5)cc4F)ncnc3cc2OC)CC1 [Example 28, 1-(4-{[4-(2-Fluoro-4-{[1-(6-methylpyridin-3-yl)-1H-pyrazol-3-yl]oxy}anilino)-7-methoxyquinazolin-6-yl]oxy}piperidin-1-yl)prop-2-en-1-one] | 12.4 nM | 12.1 nM | 8370 nM | 290 nM |
| C=CC(=O)N1CCC(Oc2cc3c(Nc4ccc(Oc5nc(C(=O)NC(C)(C)C)cs5)cc4F)ncnc3cc2OC)CC1 [Example 15, N-tert-Butyl-2-{3-fluoro-4-[(7-methoxy-6-{[1-(prop-2-enoyl)piperidin-4-yl]oxy}quinazolin-4-yl)amino]phenoxy}-1,3-thiazole-4-carboxamide] | 12.2 nM | 5.5 nM | > 10000 nM | 77.3 nM |
| COc1cc2ncnc(Nc3ccc(Oc4nc(CC(=O)NC(C)(C)C)cs4)cc3F)c2cc1NC(=O)/C=C/CN1CC[C@@H](OC)C1 [Example 61, (2E)-N-{4-[4-({4-[2-(tert-Butylamino)-2-oxoethyl]-1,3-thiazol-2-yl}oxy)-2-fluoroanilino]-7-methoxyquinazolin-6-yl}-4-[(3R)-3-methoxypyrrolidin-1-yl]but-2-enamide] | 25.6 nM | 88.1 nM | 3120 nM | 731 nM |
| C=CC(=O)N1CCC(Oc2cc3c(Nc4cc(F)c(Oc5ccn(C(=O)NC(C)(C)C)n5)cc4F)ncnc3cc2OC)CC1 [Example 7, N-tert-Butyl-3-{2,5-difluoro-4-[(7-methoxy-6-{[1-(prop-2-enoyl)piperidin-4-yl]oxy}quinazolin-4-yl)amino]phenoxy}-1H-pyrazole-1-carboxamide] | 39.4 nM | 19.6 nM | 5900 nM | 191 nM |
| COc1cc2ncnc(Nc3ccc(Oc4nn(CC(=O)NC(C)(C)C)cc4F)cc3F)c2cc1NC(=O)/C=C/CN1CC(F)C1 [Example 59, (2E)-N-{4-[4-({1-[2-(tert-Butylamino)-2-oxoethyl]-4-fluoro-1H-pyrazol-3-yl}oxy)-2-fluoroanilino]-7-methoxyquinazolin-6-yl}-4-(3-fluoroazetidin-1-yl)but-2-enamide] | 11.9 nM | 7.4 nM | > 10000 nM | 468 nM |
| COc1cc2ncnc(Nc3ccc(Oc4nn(CC(=O)NC(C)(C)C)cc4F)cc3F)c2cc1NC(=O)/C=C/CN1CCC(F)C1 (racemic) [Example 58, rac-(2E)-N-{4-[4-({1-[2-(tert-Butylamino)-2-oxoethyl]-4-fluoro-1H-pyrazol-3-yl}oxy)-2-fluoroanilino]-7-methoxyquinazolin-6-yl}-4-(3-fluoropyrrolidin-1-yl)but-2-enamide] | 10.3 nM | 6.7 nM | 4010 nM | 252 nM |
